Measurements taken from US20230150981A1, “N-HETEROARYLALKYL-2-(HETEROCYCLYL AND HETEROCYCLYLMETHYL) ACETAMIDE DERIVATIVES AS SSTR4 AGONISTS” (Takeda Pharmaceutical Compnay Limited, priority 2020, published 2023).

Each compound was assayed against T1, SSTR4 (Homo sapiens, UniProt P31391) (assay: Inhibition of forskolin stimulated cAMP in CHO-K1 cells overexpressing SSTR4). Conditions: read-out: SSTR4 Activity pEC50 (converted).
T1 construct: host or cells: CHO-K1
Assay type: cell-based
Description: Inhibition of Forskolin Stimulated cAMP in Cells Overexpressing SSTR4
This cell-based assay measures the ability of compounds to inhibit forskolin stimulated cAMP in CHO-K1 cells overexpressing SSTR4. CHO-K1 cells overexpressing SSTR4 (CHO-SSTR4) are purchased from DiscoveRx (product code 95-0059C2). The CHO-SSTR4 cells are maintained in F12K media with 10% Fetal Bovine Serum (Hyclone), 1% Pen/Strep (Life Technologies), and 800 μg/mL G418 (Life Technologies). To perform the assay, 3000 cells are plated per well in white 384-well plate (Corning 3570) in 50 μL complete media and the cells are allowed to attach for 16 hours in a 37° C., 5% CO2 incubator. The next day, the culture media is removed from the cells and the cells are washed (added then removed) with Krebs Ringer Buffer (ZenBio, KRB-1000 mL). Test compounds are suspended in DMSO and diluted in stimulation buffer: Krebs Ringer Buffer plus 0.5% BSA (Roche), 300 μM IBMX (Sigma), and 350 nM forskolin (Sigma). The cells are incubated in 10 μL compound/stimulation buffer for 30 minutes at room temperature. Cellular cAMP levels are detected with a HTRF LANCE Ultra cAMP kit (Perkin Elmer, catalog number TRF0264).
The assay is performed in accordance with the manufacturer's instructions. Five μL of diluted Eu-W8044 labeled streptavidin (dilution: 1:50 in cAMP Detection Buffer) is added to each well. Then 5 μL of diluted biotin cAMP (dilution: 1:150 in cAMP Detection Buffer) is added to each well. The plates are covered and allowed to incubate for 60 minutes at room temperature on a shaker. HTRF (665 nm/615 nm) is read on a Perkin Elmer ENVISION plate reader. The pEC50 values are generated using Activity Base for Screening Data Management.

T1 sequence (P31391 whole entry): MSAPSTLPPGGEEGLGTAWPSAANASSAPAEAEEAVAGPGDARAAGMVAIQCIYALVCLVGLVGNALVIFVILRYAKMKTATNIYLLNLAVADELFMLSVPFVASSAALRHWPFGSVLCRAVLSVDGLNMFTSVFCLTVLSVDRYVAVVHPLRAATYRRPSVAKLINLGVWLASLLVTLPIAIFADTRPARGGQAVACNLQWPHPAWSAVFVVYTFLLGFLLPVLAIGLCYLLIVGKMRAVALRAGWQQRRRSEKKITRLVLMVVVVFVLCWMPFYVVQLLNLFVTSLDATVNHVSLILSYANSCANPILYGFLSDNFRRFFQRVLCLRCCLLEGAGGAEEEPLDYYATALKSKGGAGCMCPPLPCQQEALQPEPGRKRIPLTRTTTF

Row | EC50 [nM] | SMILES
1 | 316 | C[C@@H](CN1CCCC1)C(=O)NC(C)(C)c1ccccc1Cl (single isomer, unassigned) [Example 137]
2 | 1260 | COc1ccc(C(C)(C)NC(=O)[C@@H](C)CN2CCC2)cc1 (single isomer, unassigned) [Example 139]
3 | 398 | Cc1ccccc1C(C)(C)NC(=O)[C@@H](C)CN1CCC1 (single isomer, unassigned) [Example 141]
4 | 200 | Cc1c(F)cccc1C(C)(C)NC(=O)[C@@H](C)CN1CCC1 (single isomer, unassigned) [Example 143]
5 | 100 | Cc1cccc(C(C)(C)NC(=O)[C@H](C)CN2CCC2)c1Cl (single isomer, unassigned) [Example 144]
6 | 501 | Cc1ccc(C(C)(C)NC(=O)[C@H](C)CN2CCC2)cc1 (single isomer, unassigned) [Example 148]
7 | 1000 | C[C@H](CN1CCC1)C(=O)NC(C)(C)c1cccc(F)c1 (single isomer, unassigned) [Example 152]
8 | 1260 | C[C@H](CN1CCC1)C(=O)NC(C)(C)c1ccc(Cl)cc1 (single isomer, unassigned) [Example 154]
9 | 2510 | C[C@@H](CN1CCC1)C(=O)NC(C)(C)c1ccccc1F (single isomer, unassigned) [Example 157]
10 | > 5010 | O=C(CCN1CCC1)N[C@@H](c1cc(F)ccc1F)C(F)F (single isomer, unassigned) [Example 168]
11 | 251 | COc1c(F)cccc1C(C)(C)NC(=O)[C@@H](C)CN1CCC1 (single isomer, unassigned) [Example 172]
12 | > 10000 | Cc1ccc([C@@H](CF)NC(=O)CCN2CCC2)cc1 (single isomer, unassigned) [Example 174]
13 | 126 | Cc1cccnc1OCC1(NC(=O)[C@@H](C)[C@@H]2CCCN2C)CC1 (single isomer, unassigned) [Example 176]
14 | > 10000 | Cc1cccnc1OCC1(NC(=O)[C@H](C)[C@H]2CCCN2C)CC1 (single isomer, unassigned) [Example 177]
15 | 79.4 | CC[C@@H](CN1CCC1)C(=O)NC(C)(C)c1cccc(F)c1 (single isomer, unassigned) [Example 185]
16 | 200 | CC[C@H](CN1CCC1)C(=O)NC(C)(C)c1ccc(C)cc1 (single isomer, unassigned) [Example 186]
17 | 2000 | O=C(CCN1CCCC1)N[C@@H](c1cccc(Cl)c1)C(F)F (single isomer, unassigned) [Example 197]
18 | > 10000 | CC[C@H](CN1CCC1)C(=O)NC(C)(C)c1ccccc1F (single isomer, unassigned) [Example 199]
19 | 200 | C[C@@H](CN1CCC1)C(=O)N[C@@H](CF)c1ccccc1 (single isomer, unassigned) [Example 206]

More lines, now with the values behind:

Row | SMILES | EC50 [nM]
20 | Cc1cccnc1OCC(C)(C)NC(=O)[C@H](C)[C@@H]1CCCN1C (racemic) [Example 66, (R)-N-(2-methyl-1-((3-methylpyridin-2-yl)oxy)propan-2-yl)-2-((S)-1-methylpyrrolidin-2-yl)propanamide and (S)-N-(2-methyl-1-((3-methylpyridin-2-yl)oxy)propan-2-yl)-2-((R)-1-methylpyrrolidin-2-yl)propanamide] | 15.8
21 | Cc1cccnc1OCC(C)(C)NC(=O)[C@@H](C)[C@@H]1CCCN1C (racemic) [Example 67, (S)-N-(2-methyl-1-((3-methylpyridin-2-yl)oxy)propan-2-yl)-2-((S)-1-methylpyrrolidin-2-yl)propanamide and (R)-N-(2-methyl-1-((3-methylpyridin-2-yl)oxy)propan-2-yl)-2-((R)-1-methylpyrrolidin-2-yl)propanamide] | 1.58
22 | COc1ccccc1C(C)(C)NC(=O)[C@@H](C)CN1CCCC1 (single isomer, unassigned) [Example 76] | 631
23 | Cc1cccnc1OCC1(NC(=O)[C@@H](C)[C@H]2CCCN2C)CC1 (single isomer, unassigned) [Example 126] | 398
24 | CN1CCC[C@H]1CC(=O)NC(C)(C)[C@H]1CCc2ccccc2O1 (single isomer, unassigned) [Example 129] | 398
25 | CN1CCC[C@@H]1CC(=O)NC(C)(C)[C@H]1CCc2ccccc2O1 (single isomer, unassigned) [Example 130] | 316
26 | C[C@H](CN1CCC1)C(=O)NC(C)(C)c1ccccc1Cl (single isomer, unassigned) [Example 133] | 200
27 | Cn1nc(C(C)(C)NC(=O)CC23CCCN2CCC3)c2ccccc21 [Example 10, N-(2-(1-methyl-1H-indazol-3-yl)propan-2-yl)-2-(tetrahydro-1H-pyrrolizin-7a(5H)-yl)acetamide] | 200
28 | CN1CCCC1CC(=O)NC(C)(C)c1cccc(Cl)c1 (centres unmarked) [Example 12, N-(2-(3-chlorophenyl)propan-2-yl)-2-(1-methylpyrrolidin-2-yl)acetamide] | 126
29 | CN1Cc2ccccc2C[C@H]1CC(=O)NC(C)(C)c1nccc2ccccc12 [Example 20, (S)-N-(2-(isoquinolin-1-yl)propan-2-yl)-2-(2-methyl-1,2,3,4-tetrahydroisoquinolin-3-yl)acetamide] | 2000
30 | CN1CCCC1CC(=O)NC(C)(C)c1nccc2occc12 (centres unmarked) [Example 25, N-(2-(furo[3,2-c]pyridin-4-yl)propan-2-yl)-2-(1-methylpyrrolidin-2-yl)acetamide] | 79.4
31 | CN1CCCCC1CC(=O)NC(C)(C)c1nccc2c1cnn2C (centres unmarked) [Example 26, N-(2-(1-methyl-1H-pyrazolo[4,3-c]pyridin-4-yl)propan-2-yl)-2-(1-methylpiperidin-2-yl)acetamide] | 2510
32 | CN1CCCCC1CC(=O)NC(C)(C)COc1ncccc1C(F)(F)F (centres unmarked) [Example 29, N-(2-methyl-1-((3-(trifluoromethyl)pyridin-2-yl)oxy)propan-2-yl)-2-(1-methylpiperidin-2-yl)acetamide] | 100
33 | C[C@H](NC(=O)C[C@@H]1CCCN1C)c1ccc(Cl)cc1 [Example 31, N-((S)-1-(4-chlorophenyl)ethyl)-2-((S)-1-methylpyrrolidin-2-yl)acetamide] | 316
34 | C[C@H](NC(=O)C[C@@H]1CCCN1C)c1ccc(F)cc1 [Example 32, N-((S)-1-(4-fluorophenyl)ethyl)-2-((S)-1-methylpyrrolidin-2-yl)acetamide] | 501
35 | CN1CCC[C@H]1CC(=O)NC(C)(C)c1cc(Cl)ccc1Cl [Example 33, (S)-N-(2-(2,5-dichlorophenyl)propan-2-yl)-2-(1-methylpyrrolidin-2-yl)acetamide] | 79.4
36 | C[C@H](NC(=O)C[C@H]1CCCN1C)c1ccc(Cl)cc1 [Example 36, N-((S)-1-(4-chlorophenyl)ethyl)-2-((R)-1-methylpyrrolidin-2-yl)acetamide] | 501
37 | C[C@H](NC(=O)C[C@H]1CCCN1C)c1ccc(F)cc1 [Example 37, N-((S)-1-(4-fluorophenyl)ethyl)-2-((R)-1-methylpyrrolidin-2-yl)acetamide] | 1000
38 | CCN1CCC[C@H]1CC(=O)NC(C)(C)COc1ncccc1C(F)(F)F [Example 51, (S)-2-(1-ethylpyrrolidin-2-yl)-N-(2-methyl-1-((3-(trifluoromethyl)pyridin-2-yl)oxy)propan-2-yl)acetamide] | 126
39 | CC(C)(COc1ncccc1C(F)(F)F)NC(=O)C[C@@H]1CCCN1CCF [Example 52, (S)-2-(1-(2-fluoroethyl)pyrrolidin-2-yl)-N-(2-methyl-1-((3-(trifluoromethyl)pyridin-2-yl)oxy)propan-2-yl)acetamide] | 501
40 | CC(C)(COc1ncccc1C(F)(F)F)NC(=O)C[C@@H]1CCCN1C1CC1 [Example 53, (S)-2-(1-cyclopropylpyrrolidin-2-yl)-N-(2-methyl-1-((3-(trifluoromethyl)pyridin-2-yl)oxy)propan-2-yl)acetamide] | 63.1
41 | Cc1cccnc1OCC1(NC(=O)C[C@@H]2CCCN2C)CC1 [Example 54, (S)-N-(1-(((3-methylpyridin-2-yl)oxy)methyl)cyclopropyl)-2-(1-methylpyrrolidin-2-yl)acetamide] | 251
42 | Cc1cccnc1OCC1(NC(=O)C[C@@H]2CCCN2C)CCCC1 [Example 56, (S)-N-(1-(((3-methylpyridin-2-yl)oxy)methyl)cyclopentyl)-2-(1-methylpyrrolidin-2-yl)acetamide] | 200
43 | CC(C)(COc1ncccc1C(F)(F)F)NC(=O)C[C@H]1CCCN1CCF [Example 58, (R)-2-(1-(2-fluoroethyl)pyrrolidin-2-yl)-N-(2-methyl-1-((3-(trifluoromethyl)pyridin-2-yl)oxy)propan-2-yl)acetamide] | 39.8
44 | CC(C)(COc1ncccc1C(F)(F)F)NC(=O)C[C@H]1CCCN1C1CC1 [Example 59, (R)-2-(1-cyclopropylpyrrolidin-2-yl)-N-(2-methyl-1-((3-(trifluoromethyl)pyridin-2-yl)oxy)propan-2-yl)acetamide] | 15.8
